Results: the NIST ThermoML archive (doi:10.1016/j.jct.2012.06.009)
Numbers after ± are expanded uncertainties.

Assay: activity coefficient (dimensionless); of the first substance listed, at infinite dilution; xn = mol fraction of the nth substance listed
Settings: 101 kPa, Liquid, Chromatography, x1 = 0

activity coefficient (314.1 K) | activity coefficient (314.24 K) | activity coefficient (333.26 K) | activity coefficient (333.38 K) | activity coefficient (353.25 K) | activity coefficient (353.3 K) | Structure (SMILES) | also measured
1.75 ± 0.15 | 1.77 ± 0.15 | 1.73 ± 0.15 | 1.7 ± 0.14 | – | 1.65 ± 0.14 | CCCCCC [hexane] + CCCCCCCCCC(=O)O | –
1.33 ± 0.11 | 1.35 ± 0.11 | 1.17 ± 0.097 | 1.16 ± 0.096 | 1.05 ± 0.087 | 1.04 ± 0.085 | CCC(C)O (centres undefined) [butan-2-ol] + CCCCCCCCCC(=O)O | –
2.12 ± 0.18 | 2.07 ± 0.18 | 1.73 ± 0.15 | 1.78 ± 0.15 | – | 1.48 ± 0.12 | CCO [ethanol] + CCCCCCCCCC(=O)O | –
1.17 ± 0.097 | 1.21 ± 0.1 | 1.12 ± 0.093 | 1.11 ± 0.092 | 1.05 ± 0.087 | 1.04 ± 0.086 | CCC(C)O (centres undefined) [butan-2-ol] + CCCCCCCCCCCCCC(=O)O | –
1.33 ± 0.11 | – | 1.25 ± 0.1 | 1.3 ± 0.11 | 1.21 ± 0.1 | – | CCOC(C)=O [ethyl acetate] + CCCCCCCCCC(=O)O | –
1.76 ± 0.15 | 1.78 ± 0.15 | 1.57 ± 0.13 | 1.6 ± 0.14 | 1.43 ± 0.12 | 1.43 ± 0.12 | CCCO [propan-1-ol] + CCCCCCCCCCCC(=O)O | –
1.37 ± 0.12 | 1.36 ± 0.11 | – | 1.28 ± 0.11 | 1.2 ± 0.1 | 1.21 ± 0.1 | CCOC(C)=O [ethyl acetate] + CCCCCCCCCCCC(=O)O | –
1.61 ± 0.14 | 1.65 ± 0.14 | 1.52 ± 0.13 | 1.51 ± 0.13 | 1.37 ± 0.12 | 1.37 ± 0.12 | CCCO [propan-1-ol] + CCCCCCCCCCCCCC(=O)O | –
1.89 ± 0.16 | 1.92 ± 0.17 | 1.57 ± 0.13 | 1.6 ± 0.14 | 1.41 ± 0.12 | 1.35 ± 0.12 | CCCO [propan-1-ol] + CCCCCCCCCC(=O)O | –
– | – | 1.48 ± 0.13 | – | 1.34 ± 0.11 | 1.32 ± 0.11 | CCCCO [butan-1-ol] + CCCCCCCCCC(=O)O | activity coefficient (333.35 K): 1.53 ± 0.13
1.45 ± 0.12 | 1.47 ± 0.12 | – | 1.43 ± 0.12 | 1.4 ± 0.12 | 1.4 ± 0.12 | CCCCCCC [heptane] + CCCCCCCCCCCCCC(=O)O | –

Second part, the compound before the results:

Structure (SMILES) | activity coefficient (314.1 K) | activity coefficient (314.24 K) | activity coefficient (333.26 K) | activity coefficient (333.38 K) | activity coefficient (353.25 K) | activity coefficient (353.3 K) | also measured
CCCCCC [hexane] + CCCCCCCCCCCCCCCC(=O)O | – | – | – | – | – | – | activity coefficient (340.19 K): 1.29 ± 0.11; activity coefficient (348.01 K): 1.3 ± 0.11; activity coefficient (358.22 K): 1.3 ± 0.11
ClCc1ccccc1 [(chloromethyl)benzene] + CCCCCCCCCCCC(=O)O | – | – | – | – | – | – | activity coefficient (358.06 K): 1.71 ± 0.15; activity coefficient (358.1 K): 1.71 ± 0.15
CC(C)O [propan-2-ol] + CCCCCCCCCCCC(=O)O | 1.5 ± 0.13 | 1.53 ± 0.13 | 1.33 ± 0.11 | 1.37 ± 0.12 | 1.22 ± 0.1 | 1.24 ± 0.1 | –
ClCCCl [1,2-dichloroethane] + CCCCCCCCCCCC(=O)O | 1.38 ± 0.12 | 1.37 ± 0.12 | 1.3 ± 0.11 | 1.32 ± 0.11 | 1.23 ± 0.1 | – | –
ClCCCl [1,2-dichloroethane] + CCCCCCCCCC(=O)O | 1.45 ± 0.12 | 1.5 ± 0.13 | 1.35 ± 0.11 | 1.4 ± 0.12 | – | 1.27 ± 0.11 | –
COc1ccccc1 [anisole] + CCCCCCCCCC(=O)O | – | – | – | – | 1.43 ± 0.12 | 1.45 ± 0.12 | –
CCOC(C)=O [ethyl acetate] + CCCCCCCCCCCCCCCC(=O)O | – | – | – | – | – | – | activity coefficient (340.19 K): 1.28 ± 0.11; activity coefficient (347.93 K): 1.2 ± 0.1; activity coefficient (358.22 K): 1.16 ± 0.096
C=CCCCC [hex-1-ene] + CCCCCCCCCCCCCCCC(=O)O | – | – | – | – | – | – | activity coefficient (340.17 K): 1.17 ± 0.097; activity coefficient (348.01 K): 1.18 ± 0.098; activity coefficient (358.22 K): 1.2 ± 0.1
CCc1ccccc1 [ethylbenzene] + CCCCCCCCCC(=O)O | – | – | 1.28 ± 0.11 | – | – | 1.22 ± 0.1 | activity coefficient (333.35 K): 1.3 ± 0.11
COc1ccccc1 [anisole] + CCCCCCCCCCCCCCCC(=O)O | – | – | – | – | – | – | activity coefficient (340.19 K): 1.3 ± 0.11; activity coefficient (348.01 K): 1.28 ± 0.11; activity coefficient (358.22 K): 1.25 ± 0.1
ClC=C(Cl)Cl [trichloroethene] + CCCCCCCCCC(=O)O | 1.05 ± 0.086 | 1.04 ± 0.085 | 1 ± 0.082 | 1.01 ± 0.083 | – | 0.969 ± 0.08 | activity coefficient (353.08 K): 0.945 ± 0.078
CC(C)CC(C)(C)C [2,2,4-trimethylpentane] + CCCCCCCCCCCCCCCC(=O)O | – | – | – | – | – | – | activity coefficient (340.19 K): 1.5 ± 0.13; activity coefficient (348.01 K): 1.46 ± 0.12; activity coefficient (358.32 K): 1.42 ± 0.12
Clc1ccccc1 [chlorobenzene] + CCCCCCCCCCCCCCCC(=O)O | – | – | – | – | – | – | activity coefficient (340.19 K): 0.974 ± 0.08; activity coefficient (348.01 K): 0.957 ± 0.079; activity coefficient (358.22 K): 0.974 ± 0.08
CCOC(C)=O [ethyl acetate] + CCCCCCCCCCCCCC(=O)O | 1.24 ± 0.1 | 1.21 ± 0.1 | 1.19 ± 0.099 | 1.19 ± 0.099 | 1.13 ± 0.094 | 1.12 ± 0.093 | –
Clc1ccccc1 [chlorobenzene] + CCCCCCCCCC(=O)O | – | – | 1.16 ± 0.096 | 1.18 ± 0.098 | 1.17 ± 0.097 | 1.15 ± 0.096 | –
ClC(Cl)Cl [trichloromethane] + CCCCCCCCCCCC(=O)O | 0.81 ± 0.068 | 0.81 ± 0.068 | 0.832 ± 0.069 | 0.818 ± 0.068 | – | 0.839 ± 0.07 | –
CC(C)=O [acetone] + CCCCCCCCCCCC(=O)O | 1.59 ± 0.14 | 1.59 ± 0.14 | 1.45 ± 0.12 | 1.47 ± 0.12 | 1.33 ± 0.11 | 1.36 ± 0.12 | –
CC(C)O [propan-2-ol] + CCCCCCCCCCCCCC(=O)O | 1.39 ± 0.12 | 1.42 ± 0.12 | 1.3 ± 0.11 | 1.3 ± 0.11 | 1.19 ± 0.099 | 1.19 ± 0.099 | –

Structure (SMILES) | activity coefficient (314.1 K) | activity coefficient (314.24 K) | activity coefficient (333.26 K) | activity coefficient (333.38 K) | activity coefficient (353.25 K) | activity coefficient (353.3 K) | also measured
CO [methanol] + CCCCCCCCCCCC(=O)O | 1.81 ± 0.15 | – | 1.67 ± 0.14 | – | – | 1.58 ± 0.13 | activity coefficient (328.82 K): 1.9 ± 0.16; activity coefficient (343.65 K): 1.66 ± 0.14
CCc1ccccc1 [ethylbenzene] + CCCCCCCCCCCCCCCC(=O)O | – | – | – | – | – | – | activity coefficient (340.19 K): 1.04 ± 0.085; activity coefficient (348.01 K): 1.05 ± 0.086; activity coefficient (358.22 K): 1.06 ± 0.087
ClC(Cl)Cl [trichloromethane] + CCCCCCCCCCCCCC(=O)O | 0.743 ± 0.063 | 0.743 ± 0.063 | 0.739 ± 0.063 | 0.74 ± 0.063 | 0.746 ± 0.064 | 0.727 ± 0.062 | –
Cc1ccccc1 [toluene] + CCCCCCCCCCCC(=O)O | 1.06 ± 0.088 | 1.08 ± 0.089 | 1.07 ± 0.088 | 1.04 ± 0.086 | – | 1.05 ± 0.087 | –
ClCc1ccccc1 [(chloromethyl)benzene] + CCCCCCCCCCCCCCCC(=O)O | – | – | – | – | – | – | activity coefficient (348.01 K): 1.62 ± 0.14; activity coefficient (358.22 K): 1.57 ± 0.13
CC(C)=O [acetone] + CCCCCCCCCC(=O)O | 1.56 ± 0.13 | – | 1.46 ± 0.12 | 1.47 ± 0.12 | 1.34 ± 0.11 | – | –
CCc1ccccc1 [ethylbenzene] + CCCCCCCCCCCCCC(=O)O | – | – | – | – | – | – | activity coefficient (338.27 K): 1.06 ± 0.087; activity coefficient (348.3 K): 1.06 ± 0.087; activity coefficient (358.33 K): 1.04 ± 0.085
CC(C)CC(C)(C)C [2,2,4-trimethylpentane] + CCCCCCCCCC(=O)O | 2.02 ± 0.17 | 1.98 ± 0.17 | 1.91 ± 0.16 | – | 1.86 ± 0.16 | – | –
ClCCCl [1,2-dichloroethane] + CCCCCCCCCCCCCCCC(=O)O | – | – | – | – | – | – | activity coefficient (340.19 K): 1.22 ± 0.1; activity coefficient (348.01 K): 1.19 ± 0.099; activity coefficient (358.22 K): 1.14 ± 0.095
COc1ccccc1 [anisole] + CCCCCCCCCCCC(=O)O | – | – | 1.37 ± 0.12 | – | 1.33 ± 0.11 | 1.35 ± 0.11 | activity coefficient (343.65 K): 1.35 ± 0.11
C1CCCCC1 [cyclohexane] + CCCCCCCCCCCCCCCC(=O)O | – | – | – | – | – | – | activity coefficient (340.19 K): 1.03 ± 0.085; activity coefficient (348.01 K): 1.02 ± 0.084; activity coefficient (358.22 K): 1.01 ± 0.083
ClC=C(Cl)Cl [trichloroethene] + CCCCCCCCCCCCCCCC(=O)O | – | – | – | – | – | – | activity coefficient (340.19 K): 0.831 ± 0.069; activity coefficient (348.01 K): 0.826 ± 0.069; activity coefficient (358.22 K): 0.831 ± 0.069
CCCCCC [hexane] + CCCCCCCCCCCCCC(=O)O | – | – | – | – | – | – | activity coefficient (338.27 K): 1.34 ± 0.11; activity coefficient (348.3 K): 1.33 ± 0.11; activity coefficient (358.33 K): 1.33 ± 0.11
CCCCO [butan-1-ol] + CCCCCCCCCCCCCCCC(=O)O | – | – | – | – | – | – | activity coefficient (340.19 K): 1.65 ± 0.14; activity coefficient (348.01 K): 1.55 ± 0.13; activity coefficient (358.32 K): 1.43 ± 0.12
Cc1ccccc1 [toluene] + CCCCCCCCCCCCCCCC(=O)O | – | – | – | – | – | – | activity coefficient (340.19 K): 0.934 ± 0.077; activity coefficient (348.01 K): 0.935 ± 0.077; activity coefficient (358.22 K): 0.934 ± 0.077
CCCO [propan-1-ol] + CCCCCCCCCCCCCCCC(=O)O | – | – | – | – | – | – | activity coefficient (340.19 K): 1.74 ± 0.15; activity coefficient (348.01 K): 1.63 ± 0.14; activity coefficient (358.32 K): 1.5 ± 0.13
ClC(Cl)Cl [trichloromethane] + CCCCCCCCCC(=O)O | 0.823 ± 0.069 | 0.846 ± 0.07 | 0.85 ± 0.071 | 0.827 ± 0.069 | – | 0.825 ± 0.069 | –
